Reference: publication PMC4854315, “Discovery of a novel allosteric inhibitor-binding site in ERK5: comparison with the canonical kinase hinge ATP-binding site” (Acta Crystallographica. Section D, Structural Biology, 2016)

Key:
ERK5 = tested on: ERK5; set-up: method as in Deng et al., 2013; conditions: Data retrieved from the literature; ref Deng et al., 2013; cited from earlier work
recombinant human ERK5 = target: T1, recombinant human ERK5 (Homo sapiens, UniProt Q13164); experiment: TR-FRET (LANCE Ultra) biochemical assay of ERK5 kinase activity; conditions: TR-FRET enzymatic assay, phosphorylated ERK5; read-out: ERK5 IC50
T1 construct: Catalytically active kinase domain of recombinant human ERK5 enzyme was purchased from Carna Biosciences; purchased Carna Biosciences
Experimental: Catalytically active kinase domain of recombinant human ERK5 enzyme was purchased from Carna Biosciences. […] The inhibitory potency of compounds against ERK5 was evaluated using the LANCE Ultra technology from PerkinElmer according to the manufacturer’s instructions. Briefly, 3 µl of different concentrations of ATP and 100 nM ULight-eIF4E-binding protein 1 (Thr37/46) peptide (Perkin-Elmer catalogue No. TRF0128) were incubated in the presence of serially diluted compound or DMSO control at room temperature in 384-well Greiner white polystyrene assay plates. The reaction was initiated by the addition of 3 µl of 10 nM kinase. The assay buffer consisted of 1 mM DTT, 10 mM MgCl2, 1 mM EGTA, 0.01%(v/v) Tween 20 in 50 mM HEPES pH 7.5. After 60 min incubation, the reaction was stopped by the addition of 6 µl stop/detection reagent mixture consisting of 20 mM EDTA and 4 nM Eu-anti-phospho-eIF4E-binding protein 1 (Thr37/46) antibody (PerkinElmer catalogue No. TRF0216) diluted in detection buffer. The plates were incubated for 1 h before the fluorescence was measured at 615 and 665 nm with an excitation wavelength of 320 nm using an EnVision Multilabel Reader from Perkin-Elmer in time-resolved fluorescence resonance energy transfer (TR-FRET) mode. The calculated signal ratio at 665/615 nm is proportional to the kinase activity. The concentration of compound producing 50% inhibition of the kinase activity (IC50) was calculated by using GraphPad Prism to fit the data to a symmetrical sigmoidal curve.

T1 sequence (Q13164 55-347 limits assumed): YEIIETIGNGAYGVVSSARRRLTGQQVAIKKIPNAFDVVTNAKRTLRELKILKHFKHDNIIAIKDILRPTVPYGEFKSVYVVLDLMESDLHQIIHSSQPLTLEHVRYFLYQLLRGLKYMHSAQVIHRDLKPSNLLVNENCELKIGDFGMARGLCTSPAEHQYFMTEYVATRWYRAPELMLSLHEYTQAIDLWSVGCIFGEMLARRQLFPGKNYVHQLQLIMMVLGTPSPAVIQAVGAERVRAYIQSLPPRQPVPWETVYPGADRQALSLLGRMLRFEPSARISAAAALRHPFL

| IC50 (recombinant human ERK5) | SMILES | IC50 (ERK5) |
| --- | --- | --- |
|  | COc1cc(C(=O)N2CCC(N3CCN(C)CC3)CC2)ccc1Nc1ncc2c(n1)N(C1CCCC1)c1ccccc1C(=O)N2C [Compound 1] | 0.082 µM |
| > 10 µM | CC(C)NC(=O)n1nc(N)nc1Nc1ccc(Cl)cc1 [Compound 4] |  |
| > 10 µM | CC(NC(=O)n1nc(N)nc1Nc1ccc(Cl)cc1)c1ccccc1 (stereo not drawn) [Compound 6] |  |
